In patent publication US3991193A, “Derivatives of 4(3H)-quinazolone, pharmaceutical compositions thereof and methods of use” (Roussel-UCLAF, priority 1973, dated 1976):
Where two headings read alike, the source gives them in different places.

Key:
mouse [1] = experiment: Anticonvulsant Test Against Electroshock in Mouse; assay type: in vivo; details: 0.5 h, 30 min. after dosing, electroshock 55 mA, read-out: ED50 (dose protecting 50% of the mice from tonic extension of hind limbs)
Experimental: 3. Anticonvulsant Test Against Electroshock
Groups of ten mice received p.o. or i.p. the test compound at various dose levels, a control group received the vehicle alone. 30 min. after dosing, each group was then shocked via auricular electrodes using the electroshock apparatus (Ugo Basile ECT apparatus for small mammals) using the following parameters: […]
______________________________________
The number of mice which underwent tonic extension of hind limbs was noted. The dose protecting 50% of the mice (ED50) was estimated.

rat [2] = experiment: Righting Reflex Test in Rat; assay type: in vivo, Sprague-Dawley rat; details: for ED50: male Sprague-Dawley rat, read-out: ED50 (loss of righting reflex)
Experimental: Groups of ten male Sprague-Dawley rats received the test compound i.p. or p.o. at various doses. The animals dosed i.p. were assessed for loss of righting reflex immediately after dosing and those dosed p.o. were assessed at 1/4, 1/2, 1, 2, 4 and 6 hours after dosing.

[3] = Acute Toxicity Test in Rat; details: in vivo
Experimental: (§1) II. The activity of 2-methyl-3-(o-cyanophenyl)-4(3H)-quinazolone hydrochloride was also investigated in rat by the following tests.
(§2) Groups of ten rats were dosed p.o. or i.p. with various doses of the test compound and after 24 hours were assessed for mortality.
(§3) The activity of Methaqualone was investigated in the same conditions.

mouse [4] = experiment: Rotating Drum Test in Mouse; assay type: in vivo; details: 0.5 h, 30 min. after dosing, 2 min. test period, read-out: ED50 (dose causing 50% of the mice to fall off the drum)
Experimental: Groups of ten mice received p.o. or i.p. the test compound at various dose levels, a control group receiving the vehicle alone by each route .30 min. after dosing each group of mice was placed on a 30 cm diameter rotating drum revolving at 1 revolution/minute. The mice were placed on the drum against its direction of movement and the number of mice falling off within a 2 min. test period was noted. From the results obtained a dose response line was constructed and the dose causing 50% of the mice to fall off the drum (ED50) was estimated.

mouse [5] = experiment: Righting Reflex Test in Mouse; assay type: in vivo; details: for ED50: at time of peak activity, read-out: ED50 (dose producing loss of righting reflex in 50% of a group of mice)
Experimental: Groups of ten mice received the test compound orally or i.p. at various dose levels, a control group receiving vehicle alone. All mice were housed individually in glass beakers and were assessed for loss of righting reflex at 1/4, 1/2, 1, 2, 4 and 6 hours after dosing. […] From the results obtained a dose response line was constructed and the dose producing 50% loss of righting reflex was estimated for each observation time. This ED50 value (the dose producing loss of righting reflex in 50% of a group of mice) was quoted for the time of peak activity.

[6] = Acute Toxicity Tests in mouse; details: in vivo
Experimental: 1. The activity of 2-methyl-3-(o-cyanophenyl)-4(3H)-quinazolone hydrochloride was investigated in the mouse by the following 5 tests.
Acute toxicities by p.o and i.p. routes were conducted using groups of ten mice at various dose levels. Groups dosed p.o. and i.p. were assessed for mortality at 24 hours.
The activity of methaqualone (2-methyl-3-(o-tolyl)-4-quinazolone) was investigated under the same conditions by using the test procedures indicated in the five tests above.

mouse [7] = experiment: Potentiation of Hexobarbitone Sleeping Time in Mouse; assay type: in vivo; details: i.p., Hexobarbitone Sodium 65 mg/kg i.v.
Experimental: 4. Potentiation of Hexobarbitone Sleeping Time
A group of eight control mice received a dose of 65 mg/kg Hexobarbitone Sodium i.v. and subsequent sleeping times were recorded. A time value equivalent to mean sleeping time plus two standard deviations was established as a cut-off point. Other groups of eight mice received in identical dose of Hexobarbitone Sodium and at half the means control sleeping time were given various doses of the test compound i.p. The number of mice in each group asleep at the cut-off was recorded. A dose response curve was constructed and the dose at which 50% of the mice remained asleep at this cut-off point (ED50) was estimated.

rat [8] = experiment: Acute Toxicity Test in Rat
Experimental: as §1, §2, §3

[9] = ip, i.p., assessed immediately after dosing
[10] = po, p.o., assessed 1/4 to 6 hours after dosing

Structure (SMILES) | ED50 (mouse [1]; ip, i.p.) | ED50 (mouse [1]; po, p.o.) | ED50 (rat [2]; [9]) | ED50 (rat [2]; [10]) | LD50 at 24 h ([3]; ip) | LD50 at 24 h ([3]; po) | ED50 (mouse [4]; ip, i.p.) | ED50 (mouse [4]; po, p.o.) | ED50 (mouse [5]; ip) | ED50 (mouse [5]; po) | LD50 at 24 h ([6]; ip) | LD50 at 24 h ([6]; po) | ED50 (dose at which 50% of the mice remained asleep at the cut-off point) (mouse [7]) | effectiveness compared with Methaqualone (rat [2]; rat) | toxicity compared with Methaqualone (rat [8]) | oral hypnotic effectiveness (mouse [5]; oral)
Cc1ccccc1-n1c(C)nc2ccccc2c1=O [Methaqualone, 2-methyl-3-(o-tolyl)-4-quinazolone, reference compound] | 21.5 mg/kg | 42 mg/kg | 48 mg/kg | 170 mg/kg | 190 mg/kg | 440 mg/kg | 30 mg/kg | 49 mg/kg | 81 mg/kg | 160 mg/kg | 550 mg/kg | 1700 mg/kg | 25 mg/kg |  |  | 
Cc1nc2ccccc2c(=O)n1-c1ccccc1C#N.Cl [2-methyl-3-(o-cyanophenyl)-4(3H)-quinazolone hydrochloride] | 10 mg/kg | 9 mg/kg | 28 mg/kg | 106 mg/kg | > 300 mg/kg | > 1000 mg/kg | 26.5 mg/kg | 23 mg/kg | 47 mg/kg | 112 mg/kg | 570 mg/kg | 1600 mg/kg |  | much more effective than Methaqualone in the rat | less toxic | very effective oral hypnotic in mouse
